Target: T1, AMP deaminase 2 (Homo sapiens, UniProt Q01433)
T1 sequence (Q01433 whole entry): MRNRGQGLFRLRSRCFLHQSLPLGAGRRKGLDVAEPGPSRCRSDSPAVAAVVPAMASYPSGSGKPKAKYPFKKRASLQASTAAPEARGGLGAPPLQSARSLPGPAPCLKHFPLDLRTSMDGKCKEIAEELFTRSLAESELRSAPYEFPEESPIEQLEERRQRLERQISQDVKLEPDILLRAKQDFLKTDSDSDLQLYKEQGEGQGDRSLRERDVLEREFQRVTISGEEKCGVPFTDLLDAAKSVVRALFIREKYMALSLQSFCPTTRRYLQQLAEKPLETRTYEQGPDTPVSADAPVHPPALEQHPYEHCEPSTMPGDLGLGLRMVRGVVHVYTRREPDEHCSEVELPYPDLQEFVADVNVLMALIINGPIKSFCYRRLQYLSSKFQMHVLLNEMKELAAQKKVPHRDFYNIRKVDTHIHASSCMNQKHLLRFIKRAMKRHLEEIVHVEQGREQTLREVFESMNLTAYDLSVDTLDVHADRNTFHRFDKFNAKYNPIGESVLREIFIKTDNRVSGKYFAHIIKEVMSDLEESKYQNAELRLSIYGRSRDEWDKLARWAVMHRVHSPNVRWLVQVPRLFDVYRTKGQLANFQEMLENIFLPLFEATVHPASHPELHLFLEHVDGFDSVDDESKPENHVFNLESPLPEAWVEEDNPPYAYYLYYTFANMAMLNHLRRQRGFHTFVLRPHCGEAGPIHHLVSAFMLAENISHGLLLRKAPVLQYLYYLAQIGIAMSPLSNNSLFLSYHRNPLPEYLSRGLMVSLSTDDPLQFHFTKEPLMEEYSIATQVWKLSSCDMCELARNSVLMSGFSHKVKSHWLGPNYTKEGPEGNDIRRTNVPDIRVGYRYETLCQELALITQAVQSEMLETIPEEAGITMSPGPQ
Assay: AMPD Enzymatic Activity Assay
Conditions: pH 7.4

Row | IC50 [µM] | SMILES
1 | 0.016 | C[C@H](NCc1ccc(-c2ccc(C(=O)O)cn2)cc1)c1cccc2ccncc12 [6-[4-({[(1S)-1-(isoquinolin-8-yl)ethyl]amino}methyl)phenyl]pyridine-3-carboxylic acid (Compound 3)]
2 | 32 | C[C@@H](NCc1ccc(-c2ccc(C(=O)O)cn2)cc1)c1cccc2ccncc12 [6-[4-({[(1R)-1-(isoquinolin-8-yl)ethyl]amino}methyl)phenyl]pyridine-3-carboxylic acid (Compound 2)]

From BindingDB's records for doi:10.1016/j.chembiol.2014.09.011 (Astrazeneca R&D, 2014)
